The source of these data is US20070020196A1, “Inhalant formulation containing sulfoalkyl ether cyclodextrin and corticosteroid prepared from a unit dose suspension” (priority 2003, published 2007).

≈ marks a conversion by molar mass, not a printed value.

Data set [1] is described as follows: Molar ratio SAE-CD:corticosteroid at saturated solubility (phase solubility binding study). In kind it is physicochemical.
A short description of another data set: physchem. The conditions noted are these: thermodynamic from solid.
For data set [2] the following is noted: male, human, in vivo; cited from earlier work.
Data set [3] is described as follows: Solubility of selected steroids enhanced by cyclodextrins (phase solubility). As to conditions: thermodynamic from solid.
Data set [4] is described as follows: Light stability of budesonide under fluorescent lights. In kind it is physicochemical. The text has this: Samples of the above solutions were also placed in a chamber under a bank of fluorescent lights. Vials were periodically removed and assayed for budesonide. […] The loss of budesonide was first order and independent of pH.
Where [5] appears, read: aqueous with cosolvent or surfactant or cyclodextrin, [Steroid] solubility, (SBE)6.1 γ-CD (0.04 M).
[6] abbreviates: aqueous with cosolvent or surfactant or cyclodextrin, [Steroid] solubility, Captisol (0.04 M).
Setting [7] is: water, [Steroid] Intrinsic Solubility (in H2O).
[8] abbreviates: aqueous cyclodextrin solution, aqueous with cosolvent or surfactant or cyclodextrin, Solubility of steroid, (SBE)5.2 γ-CD 0.04 M.
The mark [9] stands for this setting: aqueous cyclodextrin solution, aqueous with cosolvent or surfactant or cyclodextrin, Solubility of steroid, (SBE)5.2 γ-CD 0.1 M.
[10] abbreviates: aqueous cyclodextrin solution, aqueous with cosolvent or surfactant or cyclodextrin, Solubility of steroid, (SBE)6.1 γ-CD 0.04 M.
Setting [11] is: aqueous cyclodextrin solution, aqueous with cosolvent or surfactant or cyclodextrin, Solubility of steroid, (SBE)6.1 γ-CD 0.08 M.
Setting [12] is: aqueous cyclodextrin solution, aqueous with cosolvent or surfactant or cyclodextrin, Solubility of steroid, (SBE)6.7 β-CD 0.0465 M.
Setting [13] is: aqueous cyclodextrin solution, aqueous with cosolvent or surfactant or cyclodextrin, Solubility of steroid, (SBE)6.7 β-CD 0.0950 M.
[14] abbreviates: aqueous cyclodextrin solution, aqueous with cosolvent or surfactant or cyclodextrin, Solubility of steroid, (SBE)7 α-CD 0.04 M.
The mark [15] stands for this setting: aqueous cyclodextrin solution, aqueous with cosolvent or surfactant or cyclodextrin, Solubility of steroid, (SBE)7 α-CD 0.08 M.
The mark [16] stands for this setting: aqueous cyclodextrin solution, aqueous with cosolvent or surfactant or cyclodextrin, Solubility of steroid, (SBE)9.7 γ-CD […].
[17] abbreviates: aqueous cyclodextrin solution, aqueous with cosolvent or surfactant or cyclodextrin, Solubility of steroid, (SPE)5.4 γ-CD 0.04 M.
The mark [18] stands for this setting: aqueous cyclodextrin solution, aqueous with cosolvent or surfactant or cyclodextrin, Solubility of steroid, (SPE)5.4 γ-CD 0.08 M.
[19] abbreviates: aqueous cyclodextrin solution, aqueous with cosolvent or surfactant or cyclodextrin, Solubility of steroid, (SPE)7 β-CD 0.08 M.
[20] abbreviates: aqueous cyclodextrin solution, aqueous with cosolvent or surfactant or cyclodextrin, Solubility of steroid, γ-CD 0.035 M.
Setting [21] is: aqueous cyclodextrin solution, aqueous with cosolvent or surfactant or cyclodextrin, Solubility of steroid, γ-CD 0.1 M.
[22] abbreviates: aqueous cyclodextrin solution, aqueous with cosolvent or surfactant or cyclodextrin, [Steroid] solubility, (SBE)6.1 γ-CD (0.04 M).
Setting [23] is: aqueous cyclodextrin solution, aqueous with cosolvent or surfactant or cyclodextrin, [Steroid] solubility, Captisol (0.04 M).
[24] abbreviates: water, Solubility of steroid, H2O, no CD.
Where [25] appears, read: water, [Steroid] Intrinsic Solubility (in H2O), in H2O.

As usually defined, the solubility is the dissolved amount per volume that the medium holds. On to `CC1(C)O[C@@H]2C[C@H]3[C@@H]4C[C@H](F)C5=CC(=O)C=C[C@]5(C)[C@H]4[C@@H](O)C[C@]3(C)[C@]2(C(=O)CO)O1` [Flunisolide], for which the “Approximate Molar Ratio at Saturated Solubility of Corticosteroid (SAE-CD: corticosteroid)” value (“Approximate Molar Ratio” below) is about 16 in data set [1] (SAE-β-CD) and about 9 in data set [1] (SAE-γ-CD). In addition, the values for the solubility in “physchem” (setting [5]), in the data set “physchem” (setting [6]) and in “physchem” (setting [7]) were 4550 µM (≈ 1980 µg/mL), 2620 µM (≈ 1140 µg/mL) and 113 µM (≈ 49.1 µg/mL), respectively.
With `C[C@]12C=CC(=O)C=C1CC[C@@H]1[C@@H]2C(=O)C[C@@]2(C)[C@H]1CC[C@]2(O)C(=O)CO` [Prednisone], the solubility in “physchem” (setting [5]) was 13100 µM (≈ 4710 µg/mL); in “physchem” (setting [6]), 18300 µM (≈ 6570 µg/mL); in “physchem” (setting [7]), 505 µM (≈ 181 µg/mL).
For the molecule `CCNC(=O)[C@@H]1CCCN1C(=O)[C@H](CCCNC(=N)N)NC(=O)[C@H](CC(C)C)NC(=O)[C@@H](CC(C)C)NC(=O)[C@H](Cc1ccc(O)cc1)NC(=O)[C@H](CO)NC(=O)[C@H](Cc1c[nH]c2ccccc12)NC(=O)[C@H](Cc1c[nH]cn1)NC(=O)[C@@H]1CCC(=O)N1` [leuprolide acetate], in data set [2], the Bioavailability was 2.4% and the “Bioavailability compared with i.v.” value is reported as 94%.
Regarding `CCC(=O)O[C@]1(C(=O)SCF)[C@H](C)C[C@H]2[C@@H]3C[C@H](F)C4=CC(=O)C=C[C@]4(C)[C@@]3(F)[C@@H](O)C[C@@]21C` [Fluticasone propionate, fluticasone propionate], the results for the “Approximate Molar Ratio” value in data set [1] (SAE-α-CD), in data set [1] (SAE-β-CD) and in data set [1] (SAE-γ-CD) were about 501, about 797 and about 51, respectively. The solubility in data set [3] (aqueous cyclodextrin solution, aqueous with cosolvent or surfactant or cyclodextrin, Solubility of steroid, (SBE)2.4 β-CD 0.04 M) was 17 µM; in data set [3] (aqueous cyclodextrin solution, aqueous with cosolvent or surfactant or cyclodextrin, Solubility of steroid, (SBE)2.4 β-CD 0.08 M), 24.6 µM; in data set [3] (setting [8]), 791 µM; in data set [3] (setting [9]), 2150 µM; in data set [3] (setting [10]) it was 518 µM; in data set [3] (setting [11]) it was 1210 µM. Moreover, the solubility worked out at 54.1 µM in data set [3] (setting [12]); 79.9 µM in data set [3] (setting [13]); 83.7 µM in data set [3] (setting [14]); 114 µM in data set [3] (setting [15]); 545 µM in data set [3] (aqueous cyclodextrin solution, aqueous with cosolvent or surfactant or cyclodextrin, Solubility of steroid, (SBE)9.7 γ-CD 0.04 M); 1030 µM in data set [3] (setting [16]). In addition, the solubility in data set [3] (setting [17]) was determined as 717 µM; in data set [3] (setting [18]) it was 1400 µM; in data set [3] (aqueous cyclodextrin solution, aqueous with cosolvent or surfactant or cyclodextrin, Solubility of steroid, (SPE)7 β-CD 0.04 M), 10.5 µM; in data set [3] (setting [19]) it was 21.2 µM; in data set [3] (setting [20]) it was 735 µM; in data set [3] (setting [21]) it was 221 µM. Further, the solubility in data set [3] (setting [22]) was 518 µM; in data set [3] (setting [23]), 54.1 µM; in data set [3] (setting [24]), 3.9 µM; in data set [3] (setting [25]), 3.9 µM.
Turning to `CCCC1O[C@@H]2C[C@H]3[C@@H]4CCC5=CC(=O)C=C[C@]5(C)[C@H]4[C@@H](O)C[C@]3(C)[C@]2(C(=O)CO)O1` (stereo partly drawn) [Budesonide, (R,S)-11β,16α,17,21-tetrahydroxypregna-1,4-diene-3,20-dione cyclic 16,17-acetal with butyraldehyde], the “Approximate Molar Ratio” value was about 12 in data set [1] (SAE-α-CD); about 16 in data set [1] (SAE-β-CD); ~10.8 (SBE5.2), in data set [1] (SAE-γ-CD (SBE5.2)); ~13 (SBE6.1), in data set [1] (SAE-γ-CD (SBE6.1)); ~10.1 (SPE5.4) in data set [1] (SAE-γ-CD (SPE5.4)). Moreover, the “Light Stability, Pseudo 1st Order Rate constant” value in data set [4] (Captisol, pH 4) was determined as 0.0585 h⁻¹; in data set [4] (Captisol, pH 6), 0.0562 h⁻¹; in data set [4] (No Captisol, pH 4), 0.0812 h⁻¹; in data set [4] (No Captisol, pH 6) it was 0.0822 h⁻¹. For the same molecule, the solubility in data set [3] (setting [8]) was determined as 3760 µM; in data set [3] (setting [9]) it was 8620 µM; in data set [3] (setting [10]) it was 3070 µM; in data set [3] (setting [11]), 6990 µM; in data set [3] (setting [12]), 2550 µM; in data set [3] (setting [13]), 4280 µM. Besides, the solubility in data set [3] (setting [14]) stood at 3480 µM; in data set [3] (setting [15]), 5980 µM; in data set [3] (setting [16]) it was 4530 µM; in data set [3] (setting [17]), 4010 µM; in data set [3] (setting [18]), 7740 µM; in data set [3] (setting [19]), 2420 µM. Moreover, the solubility in data set [3] (aqueous cyclodextrin solution, aqueous with cosolvent or surfactant or cyclodextrin, Solubility of steroid, β-CD 0.015M) was found to be 813 µM; in data set [3] (setting [20]) it was 101 µM; in data set [3] (setting [21]), 41 µM; in data set [3] (setting [22]) it was 3070 µM; in data set [3] (setting [23]), 2550 µM; in data set [3] (setting [24]), 65.9 µM. Besides, the solubility in data set [3] (setting [25]) amounted to 66 µM.
